Results taken from BigSolDB 2.1.

CO[C@H]1/C=C/O[C@@]2(C)Oc3c(C)c(O)c4c(O)c(c(/C=N/N5CCN(C)CC5)c(O)c4c3C2=O)NC(=O)/C(C)=C\C=C\[C@H](C)[C@H](O)[C@@H](C)[C@@H](O)[C@@H](C)[C@H](OC(C)=O)[C@@H]1C
solubility (mole fraction)
Conditions	in ethanol	in ethyl acetate	in eugenol	in isopropanol	in isopropyl myristate	in limonene	in sec-butanol	in transcutol	in triacetin
298.2 K	0.00011	0.00054	0.00028	0.00073	0.0031	0.0023	0.00048	0.00097	0.00049
303.2 K	0.00016	0.00074	0.00031	0.00089	0.0038	0.0036	0.00051	0.0013	0.00052
308.2 K	0.00023	0.00088	0.00039	–	0.0043	0.0052	0.00059	0.0025	0.00072
313.2 K	0.00036	0.0091	0.00043	0.0016	0.0047	0.0085	0.00076	0.0049	0.00073
318.2 K	0.00053	0.013	0.00059	0.0017	–	–	–	0.018	0.00088

Conditions	solubility (mole fraction)
in span 80, 298.2 K	0.00058
in span 80, 303.2 K	0.00064
in span 80, 308.2 K	0.00079
in span 80, 313.2 K	0.00085
in span 80, 318.2 K	0.00099
